ChEMBL document CHEMBL5126521, “Analgesic Opioid Ligand Discovery Based on Nonmorphinan Scaffolds Derived from Natural Sources” (J Med Chem, 2022)
Square brackets hold non-standard residues; d marks the D form. Peptide text beside a SMILES is read from it. ξ: configuration not given here. Dmt = Cc1cc(O)cc(C)c1C[C@H](N)C(=O)O; ξGly(octyl) = CCCCCCCCC(N)C(=O)O; Tic = O=C(O)[C@@H]1Cc2ccccc2CN1

Tests used:
[1] = target: Delta-type opioid receptor (Mus musculus, UniProt P32300); assay: Displacement of [3H]DPDPE from mouse DOP stably expressed in CHO cell membrane; format: cell membranes
[2] = target: T1, Kappa-type opioid receptor (Homo sapiens, UniProt P41145); assay: Binding affinity to human KOP stably expressed in CHO cell membrane assessed as [35S]GTPgammaS binding; format: cell membranes; conditions: filed as antagonist
Mus musculus [3] = assay: Antinociceptive activity in po dosed C57BL/6J mouse assessed as tail withdrawal latency from warm water; format: functional
Mus musculus [4] = assay: Antinociceptive activity in icv dosed C57BL/6J mouse assessed as tail withdrawal latency from warm water; format: functional
Mu-type opioid receptor [5] = target: T2, Mu-type opioid receptor (Homo sapiens, UniProt P35372); assay: Antagonist activity at human MOP stably expressed in CHO cell membrane assessed as [35S]GTPgammaS binding; format: functional, cell membranes
[6] = target: T1, Kappa-type opioid receptor; assay: Antagonist activity at human KOP stably expressed in CHO cell membrane assessed as [35S]GTPgammaS binding; format: functional, cell membranes
[7] = target: Kappa-type opioid receptor (Rattus norvegicus, UniProt P34975); assay: Displacement of [3H]diprenorphine from rat KOP stably expressed in CHO cell membrane; format: cell membranes
[8] = target: T3, Delta-type opioid receptor (Homo sapiens, UniProt P41143); assay: Binding affinity to DOP (unknown origin)
Mus musculus [9] = assay: Antinociceptive activity in Kunming mouse assessed as heat paw withdrawal measured after 10 secs administered icv; format: functional; conditions: time 10 sec, 10 s
[10] = Stability in rat brain homogenate assessed as half life; format: ADME, tissue-based
Mu-type opioid receptor [11] = target: T2, Mu-type opioid receptor; assay: Binding affinity to MOP (unknown origin)
[12] = Stability in mouse serum assessed as half life; format: ADME, cell-free
[13] = Toxicity in icv dosed C57BL/6J mouse assessed as antinociceptive activity tolerance; format: organism-based; conditions: in vivo, icv_or_intrathecal
[14] = Half life in mouse liver microsomes; format: ADME, Microsome
[15] = target: T1, Kappa-type opioid receptor; assay: Inhibition of KOP (unknown origin)
[16] = target: T3, Delta-type opioid receptor; assay: Inhibition of DOP (unknown origin)
Rattus norvegicus [17] = assay: Antinociceptive activity in Sprague-Dawley rat assessed as tail flick response in warm water administered icv; format: functional
[18] = target: T3, Delta-type opioid receptor; assay: Displacement of [3H]DPDPE from human DOP expressed in CHO-K1 cell membrane incubated for 60 mins by Microscint-counting analysis; format: cell membranes
Mu-type opioid receptor [19] = target: T2, Mu-type opioid receptor; assay: Agonist activity at human MOP expressed in CHO-K1 cell membrane assessed as [35S]GTPgammaS binding; format: functional, cell membranes
Mu-type opioid receptor [20] = target: T2, Mu-type opioid receptor; assay: Agonist activity at human MOP expressed in CHO-K1 cell membrane assessed as [35S]GTPgammaS binding relative to control; format: functional, cell membranes; conditions: filed as agonist
Mu-type opioid receptor [21] = target: T2, Mu-type opioid receptor; assay: Displacement of [3H]DAMGO from human MOP expressed in CHO-K1 cell membrane incubated for 60 mins by Microscint-counting analysis; format: cell membranes
[22] = Degradation half life in rat brain homogenate; format: ADME, tissue-based
[23] = target: T3, Delta-type opioid receptor; assay: Displacement of [3H]DPDPE from DOP (unknown origin) stably expressed in CHO cell membrane incubated for 90 mins by scintillation counter analysis; format: cell membranes
[24] = target: T1, Kappa-type opioid receptor; assay: Displacement of [3H]diprenorphine from KOP (unknown origin) stably expressed in CHO cell membrane incubated for 90 mins by scintillation counter analysis; format: cell membranes
Mu-type opioid receptor [25] = target: T2, Mu-type opioid receptor; assay: Displacement of [3H]DAMGO from MOP (unknown origin) stably expressed in CHO cell membrane incubated for 90 mins by scintillation counter analysis; format: cell membranes
Rattus norvegicus [26] = assay: Antinociceptive activity in Sprague-Dawley rat assessed as tail flick response in warm water administered iv; format: functional
Mu-type opioid receptor [27] = target: T2, Mu-type opioid receptor; assay: Agonist activity at MOP in human SH-SY5Y cells assessed as forskolin stimulated cAMP accumulation incubated for 30 mins by Biotrak-EIA kit method; format: functional, cell-based
Mus musculus [28] = assay: Antinociceptive activity in Swiss albino mouse assessed tail flick response in warm water administered icv; format: functional
[29] = Stability in rat brain homogenate assessed as compound remaining measured after 90 mins relative to control; format: ADME, tissue-based; conditions: read-out: Stability
Mus musculus [30] = organism: Mus musculus; assay: Antinociceptive activity in mouse by tail pressure test; format: functional; conditions: Mus musculus; read-out: ED50
Mu-type opioid receptor [31] = target: Mu-type opioid receptor (Cavia porcellus, UniProt P97266); assay: Antagonist activity at guinea pig ileum MOP; format: functional, tissue-based
Mus musculus [32] = assay: Antinociceptive activity in mouse administered icv; format: functional
Mus musculus [33] = assay: Antinociceptive activity in ip dosed mouse assessed as tail flick latency; format: functional

T2 sequence (P35372 whole entry): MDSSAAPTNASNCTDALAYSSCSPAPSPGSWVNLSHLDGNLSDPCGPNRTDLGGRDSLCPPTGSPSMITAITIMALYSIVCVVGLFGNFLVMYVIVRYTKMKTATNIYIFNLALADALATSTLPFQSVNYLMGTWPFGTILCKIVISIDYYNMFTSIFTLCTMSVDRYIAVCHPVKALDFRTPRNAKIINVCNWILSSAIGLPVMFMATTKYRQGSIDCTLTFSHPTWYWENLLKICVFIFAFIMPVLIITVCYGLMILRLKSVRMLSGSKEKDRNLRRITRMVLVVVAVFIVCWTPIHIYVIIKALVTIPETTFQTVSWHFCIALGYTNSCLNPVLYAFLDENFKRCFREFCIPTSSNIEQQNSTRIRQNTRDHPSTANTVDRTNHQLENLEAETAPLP
T3 sequence (P41143 whole entry): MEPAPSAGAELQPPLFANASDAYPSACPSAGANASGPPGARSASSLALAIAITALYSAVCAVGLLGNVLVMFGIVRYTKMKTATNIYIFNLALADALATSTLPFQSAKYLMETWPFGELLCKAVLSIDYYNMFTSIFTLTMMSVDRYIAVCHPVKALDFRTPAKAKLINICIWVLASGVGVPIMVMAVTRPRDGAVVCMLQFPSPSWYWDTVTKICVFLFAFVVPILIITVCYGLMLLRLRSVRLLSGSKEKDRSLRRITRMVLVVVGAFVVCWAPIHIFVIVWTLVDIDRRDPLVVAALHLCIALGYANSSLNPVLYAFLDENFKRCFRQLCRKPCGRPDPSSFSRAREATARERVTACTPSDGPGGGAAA
T1 sequence (P41145 whole entry): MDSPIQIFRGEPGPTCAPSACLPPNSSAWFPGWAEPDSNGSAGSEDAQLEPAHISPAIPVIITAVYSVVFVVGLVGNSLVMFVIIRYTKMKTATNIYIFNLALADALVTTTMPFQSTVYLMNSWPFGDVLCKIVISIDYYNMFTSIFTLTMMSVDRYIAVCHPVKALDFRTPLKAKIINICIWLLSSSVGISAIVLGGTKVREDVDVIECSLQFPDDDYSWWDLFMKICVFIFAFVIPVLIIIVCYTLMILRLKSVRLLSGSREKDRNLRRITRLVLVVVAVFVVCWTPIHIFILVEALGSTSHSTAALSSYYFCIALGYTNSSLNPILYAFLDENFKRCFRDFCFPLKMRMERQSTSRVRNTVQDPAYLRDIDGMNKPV
Sequence of Delta-type opioid receptor (Mus musculus, UniProt P32300) (P32300 whole entry): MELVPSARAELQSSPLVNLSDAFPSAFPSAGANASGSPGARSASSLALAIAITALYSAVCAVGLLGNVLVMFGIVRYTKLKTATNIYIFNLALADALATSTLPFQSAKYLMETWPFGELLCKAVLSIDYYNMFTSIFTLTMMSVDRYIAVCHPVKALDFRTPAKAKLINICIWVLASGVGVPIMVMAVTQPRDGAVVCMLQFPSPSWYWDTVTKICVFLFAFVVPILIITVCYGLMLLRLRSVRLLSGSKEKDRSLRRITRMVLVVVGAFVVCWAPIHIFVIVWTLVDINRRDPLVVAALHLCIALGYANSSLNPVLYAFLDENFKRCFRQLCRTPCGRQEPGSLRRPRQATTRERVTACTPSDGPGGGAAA
Sequence of Kappa-type opioid receptor (Rattus norvegicus, UniProt P34975) (P34975 whole entry): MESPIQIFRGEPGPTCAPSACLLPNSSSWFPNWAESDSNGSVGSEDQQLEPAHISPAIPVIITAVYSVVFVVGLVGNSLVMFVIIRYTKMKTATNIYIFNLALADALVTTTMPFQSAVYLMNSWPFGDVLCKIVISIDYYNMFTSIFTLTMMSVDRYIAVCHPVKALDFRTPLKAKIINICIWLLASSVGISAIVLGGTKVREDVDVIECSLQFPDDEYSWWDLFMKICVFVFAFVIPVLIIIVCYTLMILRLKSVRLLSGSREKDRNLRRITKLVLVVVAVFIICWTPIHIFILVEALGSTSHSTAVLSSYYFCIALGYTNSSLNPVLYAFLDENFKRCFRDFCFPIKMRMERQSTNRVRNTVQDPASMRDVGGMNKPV
Sequence of Mu-type opioid receptor (Cavia porcellus, UniProt P97266) (P97266 whole entry): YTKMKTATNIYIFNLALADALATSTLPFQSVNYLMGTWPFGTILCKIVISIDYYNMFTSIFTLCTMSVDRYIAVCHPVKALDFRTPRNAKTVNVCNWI

## O=C1N[C@H](Cc2c[nH]c3ccccc23)C(=O)N[C@@H](Cc2ccccc2)C(=O)N2CCC[C@@H]2C(=O)N[C@H]1Cc1ccccc1
[1]
  Ki: 4.19 µM
[2]
  Kb: 20.2 nM
Mus musculus [3]
  ED50: 60 mg/kg

## C[C@H]1NC(=O)[C@H](Cc2ccccc2)NC(=O)[C@H]2CCCN2C(=O)[C@H](Cc2ccccc2)NC1=O
Mus musculus [4]
  ED50: 0.28 nmol
Mu-type opioid receptor [5]
  IC50: 1100 nM
[1]
  Ki: 10 µM
[6]
  IC50: 922 nM
[7]
  Ki: 1720 nM

## COC(=O)[C@H](Cc1ccccc1)NC(=O)[C@H](Cc1ccccc1)NC(=O)[C@@H]1CCCN1C(=O)[C@@H](N)Cc1ccc(O)cc1
[8]
  Ki: > 10000 nM
Mus musculus [9]
  ED50: 3 nmol
[10]
  half-life: 47.6 min
Mu-type opioid receptor [11]
  Ki: 9.07 nM
[12]
  half-life: 30.1 min

## C[C@@H]1NC(=O)[C@@H](Cc2c[nH]c3ccccc23)NC(=O)[C@H](Cc2ccccc2)NC(=O)[C@H]2CCCN2C1=O
Mus musculus [4]
  ED50: 1.99 nmol
Mu-type opioid receptor [5]
  IC50: 8.08 nM
[6]
  IC50: 0.81 nM
[7]
  Ki: 3.07 nM

## CCOC(=O)[C@H](Cc1ccccc1)NC(=O)[C@H](Cc1ccccc1)NC(=O)[C@@H]1CCCN1C(=O)[C@@H](N)Cc1ccc(O)cc1
[8]
  Ki: 2940 nM
Mus musculus [9]
  ED50: 8.4 nmol
[10]
  half-life: 58.6 min
Mu-type opioid receptor [11]
  Ki: 15 nM
[12]
  half-life: 29.9 min

## O=C1N[C@H](Cc2ccccc2)C(=O)N[C@H](Cc2c[nH]c3ccccc23)C(=O)N[C@@H](Cc2ccccc2)C(=O)N2CCC[C@H]12
[13]
  ED50: 0.49 nmol
Mus musculus [4]
  ED50: 0.56 nmol
[14]
  half-life: ≤ 30 min
Mus musculus [3]
  ED50: 4.72 mg/kg

## CC[C@@H]1CN2CCc3c([nH]c4cccc(OC)c34)[C@H]2C[C@@H]1/C(=C\OC)C(=O)OC
[8]
  Ki: > 10000 nM
[15]
  IC50: 10 µM
[16]
  IC50: > 10 µM

## NC(=O)[C@@H]1CC(=O)NCCCC[C@@H](NC(=O)[C@@H](N)Cc2ccc(O)cc2)C(=O)N[C@@H](Cc2c[nH]c3ccccc23)C(=O)N[C@@H](Cc2ccccc2)C(=O)N1
Rattus norvegicus [17]
  ED50: 0.2 nmol
[18]
  Ki: 83 nM
Mu-type opioid receptor [19]
  EC50: 0.94 nM
Mu-type opioid receptor [20]
  Emax: 100%
Mu-type opioid receptor [21]
  Ki: 0.49 nM

## Cc1cc(O)cc(C)c1C[C@H](N)C(=O)N1Cc2ccccc2C[C@H]1C(=O)N[C@@H](Cc1ccccc1)C(=O)N[C@@H](Cc1ccccc1)C(N)=O (H-[Dmt][Tic]FF-NH2)
[22]
  half-life: 6.1 min

## C[C@@H]1NC(=O)[C@H](Cc2c[nH]c3ccccc23)NC(=O)[C@H](Cc2ccccc2)NC(=O)[C@H]2CCCN2C1=O
Mus musculus [4]
  ED50: 1.49 nmol
[23]
  Ki: 8.68 µM
[24]
  Ki: 8 nM
Mu-type opioid receptor [25]
  Ki: 32.2 nM

## O=C1N[C@H](Cc2ccccc2)C(=O)N2CCC[C@@H]2C(=O)N[C@@H](Cc2ccccc2)C(=O)N[C@H]1Cc1c[nH]c2ccccc12
[13]
  ED50: 20.3 nmol
Mus musculus [4]
  ED50: 0.75 nmol
[14]
  half-life: 54 min
Mu-type opioid receptor [25]
  Ki: > 100000 nM
Mus musculus [3]
  ED50: 7.62 mg/kg

## C[C@@H]1NC(=O)[C@H]2CCCN2C(=O)[C@H](Cc2ccccc2)NC(=O)[C@H](Cc2c[nH]c3ccccc23)NC1=O
[23]
  Ki: > 10 µM
[24]
  Ki: 663 nM
Mu-type opioid receptor [25]
  Ki: 533 nM

## CC(C)(C)OC(=O)[C@H](Cc1ccccc1)NC(=O)[C@H](Cc1ccccc1)NC(=O)[C@@H]1CCCN1C(=O)[C@@H](N)Cc1ccc(O)cc1
[8]
  Ki: 247 nM
Mus musculus [9]
  ED50: 3.2 nmol
[10]
  half-life: 72.2 min
Mu-type opioid receptor [11]
  Ki: 50.3 nM
[12]
  half-life: 46 min

## NC(=O)[C@@H]1CCC(=O)NCCCC[C@@H](NC(=O)[C@@H](N)Cc2ccc(O)cc2)C(=O)N[C@@H](Cc2c[nH]c3ccccc23)C(=O)N[C@@H](Cc2ccccc2)C(=O)N1
Rattus norvegicus [17]
  ED50: 0.021 nmol
Rattus norvegicus [26]
  ED50: 2.2 mg/kg
[18]
  Ki: 83 nM
Mu-type opioid receptor [19]
  EC50: 0.43 nM
Mu-type opioid receptor [20]
  Emax: 100%
Mu-type opioid receptor [21]
  Ki: 0.63 nM

## Cc1cc(O)cc(C)c1C[C@H](N)C(=O)N1Cc2ccccc2C[C@H]1C(=O)N[C@@H](Cc1ccccc1)[C@@H](O)C(=O)N[C@@H](Cc1ccccc1)C(N)=O
[22]
  half-life: 120 min

## O=C1N[C@H](Cc2ccccc2)C(=O)N2CCC[C@@H]2C(=O)N[C@H](Cc2ccccc2)C(=O)N[C@H]1Cc1c[nH]c2ccccc12
[13]
  ED50: 5.19 nmol
Mus musculus [4]
  ED50: 1 nmol
[14]
  half-life: ≤ 30 min
Mus musculus [3]
  ED50: 4.12 mg/kg

## CCCCCCCCC(N)C(=O)N[C@@H](Cc1ccc(O)cc1)C(=O)N1CCC[C@H]1C(=O)N[C@@H](Cc1c[nH]c2ccccc12)C(=O)N[C@@H](Cc1ccccc1)C(N)=O (stereo not given in full) (H-[ξGly(octyl)]YPWF-NH2)
Mu-type opioid receptor [27]
  EC50: 31.4 nM
Rattus norvegicus [26]
  ED50: 1.2 µmol/kg

## CC[C@H]1CN2CCc3c([nH]c4cccc(OC)c34)[C@@H]2C[C@@H]1/C(=C\OC)C(=O)OC
[8]
  Ki: > 10000 nM
[15]
  IC50: 10 µM
[16]
  IC50: > 10 µM

## CCCCCCCCC(N)C(=O)N[C@@H](Cc1c(C)cc(O)cc1C)C(=O)N1CCC[C@H]1C(=O)N[C@@H](Cc1c[nH]c2ccccc12)C(=O)N[C@@H](Cc1ccccc1)C(N)=O (stereo not given in full) (H-[ξGly(octyl)][Dmt]PWF-NH2)
Mu-type opioid receptor [27]
  EC50: 1.3 nM
Rattus norvegicus [26]
  ED50: 1 µmol/kg

## NC(=O)[C@H](Cc1ccccc1)NC(=O)[C@H](Cc1ccccc1)NC(=O)[C@@H]1CCCN1C(=O)[C@@H](N)Cc1ccc(O)cc1 [ENDOMORPHIN 2]
[10]
  half-life: 15.9 min
[12]
  half-life: 8.2 min
Mus musculus [28]
  ED50: 6.88 nmol
[22]
  half-life: 0.75 min
[29]
  remaining at […]: 0%

## N=C(N)NCCC[C@@H](NC(=O)[C@@H](N)Cc1ccc(O)cc1)C(=O)N[C@@H](Cc1ccccc1)C(=O)NCC(=O)N[C@@H](Cc1ccc(O)cc1)C(=O)N1CCC[C@H]1C(=O)N[C@@H](CO)C(N)=O
Mus musculus [30]
  ED50: 3.5 mg/kg
Mu-type opioid receptor [31]
  IC50: 90 nM
Mus musculus [32]
  ED50: 23 pmol

## O=C1N[C@@H](Cc2ccccc2)C(=O)N2CCC[C@@H]2C(=O)N[C@H](Cc2ccccc2)C(=O)N[C@H]1Cc1c[nH]c2ccccc12
[13]
  ED50: 125 nmol
Mus musculus [4]
  ED50: 20.4 nmol
[14]
  half-life: ≤ 30 min

## C[C@@H]1C(=O)N[C@@H](Cc2ccccc2)C(=O)N[C@@H](Cc2c[nH]c3ccccc23)C(=O)N[C@@H](Cc2ccccc2)C(=O)N1C
Mus musculus [4]
  ED50: 2.43 nmol
[23]
  Ki: 1.37 µM
[24]
  Ki: 113 nM
Mu-type opioid receptor [25]
  Ki: 140 nM

## C[C@@H]1NC(=O)[C@H](Cc2ccccc2)NC(=O)[C@H]2CCCN2C(=O)[C@H](Cc2ccccc2)NC1=O
Mus musculus [4]
  ED50: 6.97 nmol
[23]
  Ki: > 10 µM
[24]
  Ki: 1550 nM
Mu-type opioid receptor [25]
  Ki: 687 nM

## COC(=O)[C@@H]1C[C@H](O[C@@H]2CCCCO2)C(=O)[C@H]2[C@@]1(C)CC[C@H]1C(=O)O[C@H](c3ccoc3)C[C@]21C
Mus musculus [33]
  ED50: 1.4 mg/kg
